Results published in publication PMC2828546, “Screening-based discovery of drug-like O-GlcNAcase inhibitor scaffolds” (Febs Letters, 2010).
Values joined by “and” are separate entries in the source; they are usually repeats but may differ in a detail not shown here. Identical values can stand only once. “Also recorded” adds a separate entry of the source. Like-named read-outs stand apart in the source and are kept apart here.

Tests used:
[1] = target: T1, hOGA (Homo sapiens, UniProt O60502); test: hOGA inhibition, fluorogenic 4MU-NAG substrate; assay type: biochemical; settings: for IC50: 80 μM 4MU-GlcNAc (Km), 60 min, pH 5.7; for hOGA BEI (Binding Efficiency Index): BEI = -log(Ki)/M, M in kDa, Ki from IC50 by Cheng-Prusoff; for Selectivity (HexA/B/hOGA): ratio of HexA/B to hOGA inhibition constants
T1 construct: made in house
T1 sequence (O60502 1-916): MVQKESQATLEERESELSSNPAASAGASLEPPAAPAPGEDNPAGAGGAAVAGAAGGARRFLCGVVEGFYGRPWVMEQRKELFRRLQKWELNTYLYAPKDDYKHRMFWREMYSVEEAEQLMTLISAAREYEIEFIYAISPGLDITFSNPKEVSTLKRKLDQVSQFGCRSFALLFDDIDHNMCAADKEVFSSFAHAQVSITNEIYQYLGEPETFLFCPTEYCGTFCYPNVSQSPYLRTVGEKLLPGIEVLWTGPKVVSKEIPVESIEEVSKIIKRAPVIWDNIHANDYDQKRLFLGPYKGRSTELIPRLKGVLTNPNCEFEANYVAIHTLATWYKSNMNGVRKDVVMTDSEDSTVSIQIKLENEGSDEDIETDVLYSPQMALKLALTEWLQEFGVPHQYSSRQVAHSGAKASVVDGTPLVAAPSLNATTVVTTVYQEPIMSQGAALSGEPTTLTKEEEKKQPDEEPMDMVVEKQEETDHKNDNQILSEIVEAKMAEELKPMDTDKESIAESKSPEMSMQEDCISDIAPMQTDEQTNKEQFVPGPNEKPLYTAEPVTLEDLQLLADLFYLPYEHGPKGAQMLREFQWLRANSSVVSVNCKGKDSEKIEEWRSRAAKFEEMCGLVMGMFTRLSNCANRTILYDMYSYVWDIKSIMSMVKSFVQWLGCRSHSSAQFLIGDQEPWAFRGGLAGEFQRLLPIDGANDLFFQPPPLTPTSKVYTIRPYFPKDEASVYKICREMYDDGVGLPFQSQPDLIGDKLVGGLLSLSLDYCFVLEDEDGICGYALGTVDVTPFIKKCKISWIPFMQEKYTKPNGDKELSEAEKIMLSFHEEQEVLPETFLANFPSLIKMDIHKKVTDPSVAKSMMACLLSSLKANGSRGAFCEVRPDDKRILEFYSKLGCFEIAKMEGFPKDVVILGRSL

[2] = target: human hexosaminidase A/B; test: HexA/B inhibition, fluorogenic 4MU-NAG substrate; assay type: biochemical; settings: 230 μM substrate (Km), 15 min, pH 5.7
Description: Further kinetic experiments to determine the mode of inhibition were carried out according to the procedure described previously. […] IC50 measurements with CpOGA, hOGA and a mixture of human hexosaminidase A/B activities (Sigma A6152) against the compounds were performed using the fluorogenic 4MU-NAG substrate and standard reaction mixtures as described previously with some changes [[39,31,40]]. Standard reaction mixtures (50 μl) contained 0.2 nM CpOGA, 2 nM hOGA or 50 μ units unit/ml HexA/B in McIlvaine buffer (0.2 M Na2HPO4 mixed with 0.1 M citric acid to pH 5.7) supplemented with 0.1 mg/ml BSA. […] The reactions were run at room temperature for 7 min (CpOGA), 60 min (hOGA) or 15 min (HexA/B).

[3] = target: T1, hOGA; settings: cited from earlier work
[4] = target: T2, CpOGA (Clostridium perfringens, UniProt Q0TR53); settings: read-out: CpOGA IC50; cited from earlier work
[5] = target: T2, CpOGA; test: biochemical
[6] = target: T2, CpOGA; assay type: biochemical
[7] = target: T2, CpOGA; settings: read-out: CpOGA Ki; cited from earlier work
[8] = target: T2, CpOGA; test: biochemical; settings: read-out: inhibition of CpOGA in the screen

T2 sequence (Q0TR53 31-624 limits assumed): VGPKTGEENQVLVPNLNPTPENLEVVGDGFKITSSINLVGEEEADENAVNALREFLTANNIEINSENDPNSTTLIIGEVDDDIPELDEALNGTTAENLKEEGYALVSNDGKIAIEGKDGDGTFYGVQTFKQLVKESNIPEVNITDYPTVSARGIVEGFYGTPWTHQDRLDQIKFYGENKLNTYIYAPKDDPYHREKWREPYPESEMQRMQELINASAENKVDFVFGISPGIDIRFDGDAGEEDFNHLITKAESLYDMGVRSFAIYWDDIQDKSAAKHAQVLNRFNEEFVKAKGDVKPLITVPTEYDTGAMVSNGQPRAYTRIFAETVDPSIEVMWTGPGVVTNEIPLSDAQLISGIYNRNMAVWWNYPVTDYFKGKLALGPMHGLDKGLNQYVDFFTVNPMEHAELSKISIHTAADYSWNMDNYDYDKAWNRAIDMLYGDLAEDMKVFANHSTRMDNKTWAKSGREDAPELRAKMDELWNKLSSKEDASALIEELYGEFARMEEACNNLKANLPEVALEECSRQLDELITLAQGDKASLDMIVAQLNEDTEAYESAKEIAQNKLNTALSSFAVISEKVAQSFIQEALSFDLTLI

Row | Structure (SMILES) | IC50 ([1]; 2 nM hOGA, read-out: hOGA IC50) | IC50 [2] [µM] | hOGA BEI (Binding Efficiency Index) [1] | Selectivity (HexA/B/hOGA) [1] | inhibition mode against CpOGA [6] | also measured
1 | CC(=O)Nc1nnc(S(N)(=O)=O)s1 [Acetazolamide, acetazolamide] | 47 ± 0.1 µM | – | – | – | – | –
2 | CNc1ncnc2nc[nH]c12 [N^6-methyladenine] | 4 ± 0.3 µM | 300 | – | – | – | –
3 | CCCC1=N[C@@H]2[C@@H](O)[C@H](O)[C@@H](CO)O[C@@H]2S1 [NButGT] | – | – | – | – | – | selectivity for hOGA ([3]; thiazoline derivative, selectivity for hOGA): 600 fold
4 | CN(N=O)C(=O)N[C@H]1C(O)O[C@H](CO)[C@@H](O)[C@@H]1O (some centres unmarked) [Streptozotocin, streptozotocin] | – | – | 11 | 30 | – | IC50 [4]: 30 µM; Ki ([3]; Ki value from literature, read-out: hOGA Ki (printed in hOGA IC50 column)): 1500 µM
5 | Cn1c(=O)c2c(ncn2CC(O)CO)n(C)c1=O (centres unmarked) [Diprophylline, diprophylline] | > 100 µM | 200 ± 30 | 16 | 1.6 | compete for binding to the same CpOGA active site; also recorded: competitive inhibitor | IC50 [5]: 60 ± 10 µM
6 | CC(=O)N1CCN(c2ccc(OCC3COC(Cn4ccnc4)(c4ccc(Cl)cc4Cl)O3)cc2)CC1 (centres unmarked) [Ketoconazole, ketoconazole] | 4 µM and 4.3 µM | 11 ± 1 | – | – | compete for binding to the same CpOGA active site | –
7 | CC1CCC(NC(=O)N(CCCl)N=O)CC1 (centres unmarked) [Semustine, semustine] | – | 2500 | 16 | 9 | compete for binding to the same CpOGA active site | IC50 ([1]; hOGA IC50, 2 nM hOGA): > 100 µM
8 | CC(=O)N[C@H]1/C(=N/OC(=O)Nc2ccccc2)O[C@H](CO)[C@@H](O)[C@@H]1O [PUGNAc] | – | – | – | – | – | Ki [7]: 0.005 µM
9 | c1ccc(CNc2ncnc3nc[nH]c23)cc1 [6-benzylaminopurine] | – | – | – | – | – | inhibition at 30.2 µM [8]: 30%
10 | O=C1CC2(CCCC2)CC(=O)N1CCCCN1CCN(c2ncccn2)CC1 [Buspirone, buspirone] | 25 ± 0.1 µM | 47 ± 3 | – | – | – | –
